Series [1] deals with caterpillars of the armyworm (Spodoptera frugiperda). Nature of the series: Spodoptera frugiperda test (SPODFR spray treatment). Type of series: in vivo. To be noted: Spodoptera frugiperda, 168 h, read-out: activity in % (caterpillars killed).
Series [2] has as its system green peach aphid (Myzus persicae). Description: Myzus test (MYZUPE spray treatment). In kind it is in vivo. As to conditions: for pest or weed control at 100 g/ha / pest or weed control at 500 g/ha: read-out: activity in % (aphids killed).
Series [3] is described as follows: log P by HPLC on reversed-phase columns (EEC Directive 79/831 Annex V.A8). Type of series: physicochemical.
The test system of series [4] is larvae of the mustard beetle (Phaedon cochleariae). Description: Phaedon test (PHAECO spray treatment). As to conditions: Phaedon cochleariae, 168 h, read-out: activity in % (beetle larvae killed).
Where [5] appears, read: application rate 100 g/ha, after 7 days.
The mark [6] stands for this setting: Myzus persicae, 144 h, application rate 100 g/ha, after 6 days.
Where [7] appears, read: reversed-phase C18 HPLC column, pH 2.7, HPLC reversed-phase C18, acidic range pH 2.7 (HCOOH), only or first value of the cell, read-out: log P.

Where two headings read alike, the source gives them in different places.

For `Cc1cc(C#N)cc(C(=O)NC2COC2)c1NC(=O)c1cc(Cn2nnc(C(F)(F)F)n2)nn1-c1ncccc1Cl` [Example 20], the pest or weed control at 100 g/ha in series [1] and in series [4] was 100% each time. The “activity in % (aphids killed)” value in series [2] (application rate 100 g/ha, after 6 days) is reported as 90%. The log P (usually the decadic logarithm of the partition coefficient of the neutral form, usually between octanol and water) in series [3] (pH 2.7) was found to be 2.51.
Regarding `Cc1cc(C#N)cc(C(=O)NC2CSC2)c1NC(=O)c1cc(Cn2nnc(C(F)(F)F)n2)nn1-c1ccccc1Cl` [Example 25], the pest or weed control at 100 g/ha in series [1] (setting [5]), in series [2] (setting [6]) and in series [4] was 100% in each case. For the same compound, the chromatographic logP in series [3] (setting [7]) is 3.46.
Turning to `Cc1cc(C#N)cc(C(=O)NC2COC2)c1NC(=O)c1cc(Cn2nnc(C(F)(F)F)n2)nn1-c1c(Cl)cccc1Cl` [Example 28], the pest or weed control at 100 g/ha in series [1] (setting [5]), in series [2] (setting [6]) and in series [4] was 100% in each case. Besides, the chromatographic logP in series [3] (setting [7]) turned out to be 3.05.
In the case of `Cc1cc(C#N)cc(C(=O)NC2CCS(=O)(=O)C2)c1NC(=O)c1cc(Cn2nnc(C(F)(F)F)n2)nn1-c1ncccc1Cl` (stereo not shown) [Example 29, 1-(3-chloropyridin-2-yl)-N-{4-cyano-2-[(1,1-dioxidotetrahydrothiophen-3-yl)carbamoyl]-6-methylphenyl}-3-{[5-(trifluoromethyl)-2H-tetrazol-2-yl]methyl}-1H-pyrazole-5-carboxamide], the pest or weed control at 500 g/ha was found to be 100% in series [1]; 100% in series [2] (Myzus persicae, 144 h); 100% in series [4]. The inhibition (as a rule, how much of the control response was suppressed) at 100 g/ha in series [2] (Myzus persicae, 144 h, 100 g/ha, 6 d, comparison with prior art) was 100%. In addition, the “log P (second value after the slash)” value in series [3] (pH 2.7) was 2.17. For the same compound, the chromatographic logP in series [3] (pH 2.7, log P) turned out to be 2.47.
As for `Cc1cc(C#N)cc(C(=O)NC2CCN(Cc3ccccc3)C2)c1NC(=O)c1cc(Cn2nnc(C(F)(F)C(F)(F)F)n2)nn1-c1ncccc1Cl` (stereo not shown) [Example 32], the pest or weed control at 500 g/ha in series [1] (application rate 500 g/ha, after 7 days) came to 100%; in series [4], 100%. Further, in series [2] (setting [6]), the pest or weed control at 100 g/ha came out at 90%. Besides, the chromatographic logP in series [3] (setting [7]) is 2.14.
As to `Cc1cc(Cl)cc(C(=O)NC2CCS(=O)(=O)C2)c1NC(=O)c1cc(Cn2nnc(C(F)(F)F)n2)nn1-c1ncccc1Cl` (stereo not shown) [Example 34], the pest or weed control at 100 g/ha in series [1] was 100%; in series [2] (Myzus persicae, 144 h), 100%; in series [4], 100%. Moreover, the chromatographic logP in series [3] (pH 2.7, log P) amounted to 2.78.
Regarding `Cc1cc(Cl)cc(C(=O)NC2CS(=O)(=O)CC2O)c1NC(=O)c1cc(Cn2nnc(C(F)(F)F)n2)nn1-c1ncccc1Cl` (stereo not shown) [Example 35], the pest or weed control at 100 g/ha in series [1] was 100%; in series [2] (Myzus persicae, 144 h), 80%; in series [4], 100%. Besides, in series [3] (pH 2.7, log P), the chromatographic logP is 2.58.
In the case of `Cc1cc(C#N)cc(C(=O)NC2CCSC2=O)c1NC(=O)c1cc(Cn2nnc(C(F)(F)F)n2)nn1-c1ncccc1Cl` (stereo not shown) [Example 39], the pest or weed control at 500 g/ha is 100% in series [1]; 100% in series [2] (Myzus persicae, 144 h); 100% in series [4]. Moreover, the “log P (second value after the slash)” value in series [3] (pH 2.7) was 2.57. In series [3] (pH 2.7, log P), the chromatographic logP is 2.89.
On to `Cc1cc(Cl)cc(C(=O)NN2CCN(C)C2=O)c1NC(=O)c1cc(Cn2nnc(C(F)(F)F)n2)nn1-c1ncccc1Cl` [Example 41], for which the pest or weed control at 100 g/ha in series [1] came to 100%; in series [2] (Myzus persicae, 144 h) it was 80%; in series [4] it was 100%. Moreover, the chromatographic logP in series [3] (pH 2.7, log P) is 2.64.
On to `Cc1cc(Cl)cc(C(=O)NC2=NCCS2)c1NC(=O)c1cc(Cn2nnc(C(F)(F)F)n2)nn1-c1ncccc1Cl` [Example 45], for which the pest or weed control at 100 g/ha in series [1] turned out to be 100%; in series [2] (Myzus persicae, 144 h), 100%; in series [4], 100%. The “log P (second value after the slash)” value in series [3] (pH 2.7) was found to be 3.14. This compound showed a chromatographic logP in series [3] (pH 2.7, log P) of 3.5.
For the compound `Cc1cc(C#N)cc(C(=O)NC2=NCCS2)c1NC(=O)c1cc(Cn2nnc(C(F)(F)F)n2)nn1-c1ncccc1Cl` [Example 46], the pest or weed control at 100 g/ha was found to be 100% in series [1]; 100% in series [2] (Myzus persicae, 144 h); 100% in series [4]. The “log P (second value after the slash)” value in series [3] (pH 2.7) was 2.75. The chromatographic logP in series [3] (pH 2.7, log P) stood at 3.11.
Regarding `Cc1cc(C#N)cc(C(=O)NC2=NCCS2)c1NC(=O)c1cc(Cn2nnc(C(F)(F)C(F)(F)F)n2)nn1-c1ncccc1Cl` [Example 48], the pest or weed control at 100 g/ha in series [1] was found to be 100%; in series [2] (Myzus persicae, 144 h), 80%; in series [4], 100%. For the same compound, in series [3] (pH 2.7), the “log P (second value after the slash)” value came to 3.18. Further, the chromatographic logP in series [3] (pH 2.7, log P) amounted to 3.49.
Consider `Cc1cc(C#N)cc(C(=O)NC2CCN(C)C2=O)c1NC(=O)c1cc(Cn2nnc(C(F)(F)F)n2)nn1-c1ncccc1Cl` (stereo not shown) [Example 49], for which the pest or weed control at 100 g/ha was found to be 100% in series [1]; 100% in series [2] (Myzus persicae, 144 h); 100% in series [4]. For the same compound, the “log P (second value after the slash)” value in series [3] (pH 2.7) came to 2.19. In series [3] (pH 2.7, log P), this compound showed a chromatographic logP of 2.39.
For `Cc1cc(Cl)cc(C(=O)NC2CCN(C)C2=O)c1NC(=O)c1cc(Cn2nnc(C(F)(F)F)n2)nn1-c1ncccc1Cl` (stereo not shown) [Example 50], the pest or weed control at 100 g/ha in series [1] amounted to 100%; in series [2] (Myzus persicae, 144 h), 100%; in series [4], 100%. For the same compound, the “log P (second value after the slash)” value in series [3] (pH 2.7) is given as 2.36. The chromatographic logP in series [3] (pH 2.7, log P) was 2.66.
`Cc1cc(C#N)cc(C(=O)NC2CCS(=O)(=O)C2)c1NC(=O)c1cc(Cn2nnc(C(F)(F)F)n2)nn1-c1c(Cl)cccc1Cl` (stereo not shown) [Example 54]: the pest or weed control at 100 g/ha was 100% in series [1] (setting [5]), 80% in series [2] (setting [6]) and 100% in series [4]. The chromatographic logP in series [3] (setting [7]) was determined as 2.95.
For the compound `Cc1cc(Cl)cc(C(=O)NC(C)C2CCCO2)c1NC(=O)c1cc(Cn2nnc(C(F)(F)F)n2)nn1-c1ncccc1Cl` (stereo not shown) [Example 62], the pest or weed control at 100 g/ha worked out at 100% in series [1]; 100% in series [2] (Myzus persicae, 144 h); 100% in series [4]. In series [3] (pH 2.7, log P), this compound gave a chromatographic logP of 3.45.
Consider `Cc1cc(C#N)cc(C(=O)NCc2ccccc2)c1NC(=O)c1cc(Cn2nnc(C(F)(F)F)n2)nn1-c1ncccc1Cl` [Example 70], for which the pest or weed control at 100 g/ha in series [1] amounted to 100%; in series [2] (Myzus persicae, 144 h), 100%; in series [4] it was 100%. In series [3] (pH 2.7, log P), this compound registered a chromatographic logP of 3.38.
Turning to `Cc1cc(Cl)cc(C(=O)Nc2ccccc2)c1NC(=O)c1cc(Cn2nnc(C(F)(F)F)n2)nn1-c1ncccc1Cl` [Example 72], the pest or weed control at 100 g/ha in series [1] stood at 100%; in series [2] (Myzus persicae, 144 h) it was 80%; in series [4] it was 100%. This compound showed a chromatographic logP in series [3] (pH 2.7, log P) of 3.81.
On to `Cc1cc(Cl)cc(C(=O)NC(C)c2ccccc2F)c1NC(=O)c1cc(Cn2nnc(C(F)(F)F)n2)nn1-c1ncccc1Cl` (stereo not shown) [Example 87], for which the pest or weed control at 100 g/ha in series [1] came out at 100%; in series [2] (Myzus persicae, 144 h) it was 80%; in series [4], 100%. This compound yielded a chromatographic logP in series [3] (pH 2.7, log P) of 3.98.
In the case of `Cc1cc(Cl)cc(C(=O)NCc2ccc([N+](=O)[O-])cc2)c1NC(=O)c1cc(Cn2nnc(C(F)(F)F)n2)nn1-c1ncccc1Cl` [Example 97], the pest or weed control at 100 g/ha in series [1] (setting [5]) worked out at 100%; in series [2] (setting [6]), 90%; in series [4] it was 100%. The chromatographic logP in series [3] (setting [7]) is 3.65.
